In US20030040015A1, “Methods and reagents for identifying compounds and mutations that modulate dopamine beta-hydroxylase activity” (priority 2001, published 2003):

Tests used:
NE deficient patients [1] = details: Biaggioni et al. Lancet 1987; cited from earlier work
DBH-/- mouse embryos = details: DBH-/- embryos that usually die in utero; Thomas et al.; cited from earlier work
NE deficient patients [2] = test: Physiological and pharmacological autonomic function tests in NE deficient patients; type: in vivo, human; details: for block of heart rate increase during strain phase (phase II) of the Valsalva maneuver: human, in vivo
Text: We collected DNA samples from two patients with NE deficiency, and sequenced all exons and exon/intron junctions of their DBH, Phox2a, and Phox2b genes. Resulting novel variants were then examined in the first degree relatives of the NE deficient patients, healthy European-American controls, and in patients with autonomic disorders other than NE deficiency. […] These patients have been previously reported (Robertson D, et al. N Engl J Med; 314:1494, 1986; Biaggioni I, et al. Neurology, 40:370, 1990). The patients were evaluated on the Vanderbilt General Clinical Research Center while in balance on a 150 mEq sodium and 80 mEq potassium diet one week after discontinuation of medications. Both direct and indirect hemodynamic monitoring was carried out and a variety of physiological and pharmacological tests were employed. Catecholamines and their metabolites were analyzed by radioenzymatic and liquid chromatographic methods as described previously (Robertson D, et al. N Engl J Med, 314:1494, 1986; O'Connor D T, et al. Clin Sci, 86:149, 1994).

CHF patients = details: recent clinical studies; cited from earlier work

Question: What does the source list for N[C@H](C(=O)O)[C@H](O)c1ccc(O)c(O)c1 [DOPS, dihydroxyphenylserine]?
Answer: treatment of autonomic and biochemical deficits of NE deficient patients (NE deficient patients [1]): successfully treated; rescue of homozygous mouse embryos (DBH-/- mouse embryos): rescued homozygous mouse embryos

Question: With CN1[C@@H]2CC[C@H]1C[C@@H](OC(=O)C(CO)c1ccccc1)C2 (some centres unmarked) [atropine] as the compound, how does the “block of heart rate increase during strain phase (phase II) of the Valsalva maneuver” value (NE deficient patients [2]) read?
Answer: Its value is “blocked”.

Question: For COc1ccccc1OCCNCC(O)COc1cccc2[nH]c3ccccc3c12 (centres unmarked) [carvedilol], which “mortality and risk of death and hospitalization” value (CHF patients) is on record?
Answer: Its value is “reduced mortality and the risk of death and hospitalization”.

Question: For Clc1cccc(Cl)c1N=C1NCCN1 [clonidine], which “effect on arterial pressure” value (NE deficient patients [2]; 0.3 mg po, decrease expected) is on record?
Answer: The value was “increase in arterial pressure”.

Question: With CC(C)NCC(O)c1ccc(O)c(O)c1 (centres unmarked) [isoproterenol] as the compound, how does the “hypersensitivity to the tachycardic effect of the β-adrenoreceptor agonist” value (NE deficient patients [2]; two NE deficient patients) read?
Answer: Its value is “three-fold hypersensitivity”.

Question: Which “hypersensitivity to intravenous α1-adrenoreceptor agonist” value (NE deficient patients [2]; intravenous, two NE deficient patients) does the source give for CNC[C@H](O)c1cccc(O)c1 [phenylephrine] here?
Answer: The value was “four-fold hypersensitivity”.

Question: With CC(C)NCC(O)COc1cccc2ccccc12 (centres unmarked) [propranolol] as the compound, how does the “block of heart rate increase during strain phase (phase II) of the Valsalva maneuver” value (NE deficient patients [2]) read?
Answer: The value was “not”.

Question: For NCCc1ccc(O)cc1 [tyramine], which “response to indirectly acting sympathomimetic amine” value (NE deficient patients [2]; 8 mg IV) is on record?
Answer: The value was “absent response”.

Question: What does the source list for COC(=O)[C@@H]1[C@H]2C[C@H]3c4[nH]c5ccccc5c4CCN3C[C@@H]2CC[C@@H]1O [yohimbine]?
Answer: effect on blood pressure (NE deficient patients [2]; 10 mg po): no effect; effect on plasma catecholamines (NE deficient patients [2]; 10 mg po): no effect
